Results as given in US20110028442A1, “DERIVATIVES OF 4-(2-AMINO-1-HYDROXYETHYL) PHENOL AS AGONISTS OF THE BETA2 ADRENERGIC RECEPTOR” (priority 2008, published 2011).

What was measured:
[1] = target: T1, human adrenergic β2 receptor (Homo sapiens, UniProt P07550); experiment: Human adrenergic β2 receptor binding assay (3H-CGP12177, Sf9 membranes); settings: for IC50: membranes from Sf9 cells, 0.14 nM 3H-CGP12177, 60 minutes at room temperature; for β1/β2 ratio: ratio of human β1 IC50 to human β2 IC50
T1 construct: purchased Perkin Elmer; host or cells: Sf9 cells
Protocol: (§1) Human Adrenergic β1 and β2 Receptor Binding Assays
(§2) The study of binding to human adrenergic β1 and β2 receptors was performed using commercial membranes prepared from Sf9 cells where they are overexpressed (Perkin Elmer).
(§3) The membrane suspensions (16 μg/well for β1 and 5 μg/well for β2) in assay buffer, 75 mM Tris/HCl with 12.5 mM MgCl2 and 2 mM EDTA pH=7.4, were incubated with 0.14 nM 3H-CGP12177 (Amersham) and different concentrations of the test compounds, in a final volume of 250 μl, in GFC Multiscreen 96 well plates (Millipore) pretreated with +0.3% PEI. Non specific binding was measured in the presence of 1 μM propanolol. Incubation was for 60 minutes at room temperature and with gentle shaking. The binding reactions were terminated by filtration and washing with 2.5 volumes of Tris/HCl 50 mM pH=7.4. The affinity of each test compound to the receptor was determined by using at least six different concentrations ran in duplicate. IC50 values were obtained by non-linear regression using SAS.

[2] = target: T2, human adrenergic β1 receptor (Homo sapiens, UniProt P08588); experiment: Human adrenergic β1 receptor binding assay (3H-CGP12177, Sf9 membranes); settings: membranes from Sf9 cells, 0.14 nM 3H-CGP12177, 60 minutes at room temperature
T2 construct: purchased Perkin Elmer; host or cells: Sf9 cells
Protocol: as §1, §2, §3

T2 sequence (P08588 whole entry): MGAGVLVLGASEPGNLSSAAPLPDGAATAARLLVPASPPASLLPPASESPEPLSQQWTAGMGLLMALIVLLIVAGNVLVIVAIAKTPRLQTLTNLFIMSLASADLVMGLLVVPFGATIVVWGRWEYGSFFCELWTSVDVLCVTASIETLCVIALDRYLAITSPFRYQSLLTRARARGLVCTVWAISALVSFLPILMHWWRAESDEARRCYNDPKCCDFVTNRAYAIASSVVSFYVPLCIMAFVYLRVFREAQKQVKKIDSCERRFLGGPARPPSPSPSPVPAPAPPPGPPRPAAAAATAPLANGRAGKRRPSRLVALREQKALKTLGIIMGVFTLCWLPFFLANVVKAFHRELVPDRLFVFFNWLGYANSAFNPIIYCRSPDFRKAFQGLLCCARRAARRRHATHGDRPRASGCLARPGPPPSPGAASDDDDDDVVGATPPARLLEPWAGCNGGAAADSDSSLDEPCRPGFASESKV
T1 sequence (P07550 whole entry): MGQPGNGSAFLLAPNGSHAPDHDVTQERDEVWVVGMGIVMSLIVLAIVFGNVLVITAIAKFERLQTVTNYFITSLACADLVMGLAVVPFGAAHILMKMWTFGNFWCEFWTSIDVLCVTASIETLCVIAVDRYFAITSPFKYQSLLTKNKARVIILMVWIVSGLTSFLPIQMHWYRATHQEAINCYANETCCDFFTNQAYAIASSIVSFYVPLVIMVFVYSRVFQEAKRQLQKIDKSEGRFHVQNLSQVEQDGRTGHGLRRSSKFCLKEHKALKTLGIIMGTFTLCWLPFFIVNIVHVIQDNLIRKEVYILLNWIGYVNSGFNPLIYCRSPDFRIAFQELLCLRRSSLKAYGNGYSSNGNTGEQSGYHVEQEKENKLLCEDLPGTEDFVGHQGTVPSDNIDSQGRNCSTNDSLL

| SMILES | IC50 [1] | β1/β2 ratio [1] | IC50 [2] |
| --- | --- | --- | --- |
| O=C(NCCCc1ccccc1)Nc1cccc(CCNCC(O)c2ccc(O)c3[nH]c(=O)ccc23)c1 [Example 12, N-[3-(2-{[(2R,S)-2-hydroxy-2-(8-hydroxy-2-oxo-1,2-dihydroquinolin-5-yl)ethyl]amino}ethyl)phenyl]-N′-(3-phenylpropyl)urea] | 2.6 nM | 7.4 | 19.5 nM |
| COc1ccccc1CNC(=O)Nc1cccc(CCNCC(O)c2ccc(O)c3[nH]c(=O)ccc23)c1 [Example 9, N-[3-(2-{[(2R,S)-2-hydroxy-2-(8-hydroxy-2-oxo-1,2-dihydroquinolin-5-yl)ethyl]amino}ethyl)phenyl]-N′-(2-methoxybenzyl)urea] | 5.6 nM | 7.9 | 44.5 nM |
| CC(C)(C)c1ccc(CNC(=O)Nc2cccc(CCNC[C@H](O)c3ccc(O)c4[nH]c(=O)ccc34)c2)cc1 (racemic) [Example 33, N-(4-tert-butylbenzyl)-N′-[3-(2-{[(2R,S)-2-hydroxy-2-(8-hydroxy-2-oxo-1,2-dihydroquinolin-5-yl)ethyl]amino}ethyl)phenyl]urea] | 7.6 nM | 6.0 | 45.5 nM |
| O=C(NCCc1ccccc1)Nc1cccc(CCNCC(O)c2ccc(O)c3[nH]c(=O)ccc23)c1 [Example 11, N-[3-(2-{[(2R,S)-2-hydroxy-2-(8-hydroxy-2-oxo-1,2-dihydroquinolin-5-yl)ethyl]amino}ethyl)phenyl]-N′-(2-phenylethyl)urea] | 6.2 nM | 1.4 | 9 nM |
| O=C(NCCCCc1ccccc1)Nc1cccc(CCNCC(O)c2ccc(O)c3[nH]c(=O)ccc23)c1 [Example 20, N-[3-(2-{[(2R,S)-2-hydroxy-2-(8-hydroxy-2-oxo-1,2-dihydroquinolin-5-yl)ethyl]amino}ethyl)phenyl]-N′-(4-phenylbutyl)urea] | 2.9 nM | 4.5 | 13 nM |
| O=C(NCC12CC3CC(CC(C3)C1)C2)Nc1cccc(CCNCC(O)c2ccc(O)c3[nH]c(=O)ccc23)c1 [Example 23, N-(1-adamantylmethyl)-N′-[3-(2-{[(2R,S)-2-hydroxy-2-(8-hydroxy-2-oxo-1,2-dihydroquinolin-5-yl)ethyl]amino}ethyl)phenyl]urea] | 5.9 nM | – | 36 nM |
| C[C@@H](Cc1cccc(NC(=O)Nc2ccccc2-c2ccccc2)c1)NC[C@H](O)c1ccc(O)c2[nH]c(=O)ccc12 [Example 32, N-biphenyl-2-yl-N′-[3-(2-{[(2R)-2-hydroxy-2-(8-hydroxy-2-oxo-1,2-dihydroquinolin-5-yl)ethyl]amino}propyl)phenyl]urea, b isomer] | 2.8 nM | 9.1 | 25.5 nM |
| O=C(NCc1c(Cl)cccc1Cl)Nc1cccc(CCNCC(O)c2ccc(O)c3[nH]c(=O)ccc23)c1 [Example 17, N-(2,6-dichlorobenzyl)-N′-[3-(2-{[(2R,S)-2-hydroxy-2-(8-hydroxy-2-oxo-1,2-dihydroquinolin-5-yl)ethyl]amino}ethyl)phenyl]urea] | 6 nM | 13 | 78 nM |
| O=C(Nc1cccc(CCNC[C@H](O)c2ccc(O)c3[nH]c(=O)ccc23)c1)Nc1ccccc1-c1ccccc1 [Example 27, N-biphenyl-2-yl-N′-[3-(2-{[(2R)-2-hydroxy-2-(8-hydroxy-2-oxo-1,2-dihydroquinolin-5-yl)ethyl]amino}ethyl)phenyl]urea] | 9.7 nM | 2.5 | 24 nM |
| O=C(Nc1ccccc1)Nc1cccc(CCNCC(O)c2ccc(O)c3[nH]c(=O)ccc23)c1 [Example 15, N-[3-(2-{[(2R,S)-2-hydroxy-2-(8-hydroxy-2-oxo-1,2-dihydroquinolin-5-yl)ethyl]amino}ethyl)phenyl]-N′-phenylurea] | 10.5 nM | 0.4 | 4.4 nM |
| O=C(Nc1ccc(CCNC[C@H](O)c2ccc(O)c3[nH]c(=O)ccc23)cc1)NC(c1ccccc1)c1ccccc1 [Example 36, N-(diphenylmethyl)-N′-[4-(2-{[(2R)-2-hydroxy-2-(8-hydroxy-2-oxo-1,2-dihydroquinolin-5-yl)ethyl]amino}ethyl)phenyl]urea] | 4.5 nM | 4.3 | 19.5 nM |

Continued by falling IC50 [1], values first:

| IC50 [1] | β1/β2 ratio [1] | IC50 [2] | SMILES |
| --- | --- | --- | --- |
| 12 nM | 8.2 | 98 nM | CC(Cc1cccc(NC(=O)NCc2ccccc2)c1)NCC(O)c1ccc(O)c2[nH]c(=O)ccc12 [Example 3, N-benzyl-N′-[3-((2R,S)-2-{[(2R,S)-2-hydroxy-2-(8-hydroxy-2-oxo-1,2-dihydroquinolin-5-yl)ethyl]amino}propyl)phenyl]urea] |
| 10 nM | 3.8 | 38.5 nM | O=C(Nc1cccc(CCNCC(O)c2ccc(O)c3[nH]c(=O)ccc23)c1)NC12CC3CC(CC(C3)C1)C2 [Example 16, N-1-adamantyl-N′-[3-(2-{[(2R,S)-2-hydroxy-2-(8-hydroxy-2-oxo-1,2-dihydroquinolin-5-yl)ethyl]amino}ethyl)phenyl]urea] |
| 5.3 nM | 4.6 | 24.5 nM | O=C(Nc1cccc(CCNC[C@H](O)c2ccc(O)c3[nH]c(=O)ccc23)c1)NC(c1ccccc1)c1ccccc1 [Example 26, N-(diphenylmethyl)-N′-[3-(2-{[(2R)-2-hydroxy-2-(8-hydroxy-2-oxo-1,2-dihydroquinolin-5-yl)ethyl]amino}ethyl)phenyl]urea] |
| 4.6 nM | 11.7 | 54 nM | COc1ccccc1CNC(=O)Nc1cccc(CC(C)NCC(O)c2ccc(O)c3[nH]c(=O)ccc23)c1 [Example 6, N-[3-(2R,S)-2-{[(2R,S)-2-hydroxy-2-(8-hydroxy-2-oxo-1,2-dihydroquinolin-5-yl)ethyl]amino}propyl)phenyl]-N′-(2-methoxybenzyl)urea] |
| 4.4 nM | 11.0 | 49 nM | O=C(NCc1ccccc1)Nc1cccc(CCNCC(O)c2ccc(O)c3[nH]c(=O)ccc23)c1 [Example 8, N-benzyl-N′-[3-(2-{[(2R,S)-2-hydroxy-2-(8-hydroxy-2-oxo-1,2-dihydroquinolin-5-yl)ethyl]amino}ethyl)phenyl]urea] |
